Experimental data from US12338263B2, “Antibacterial aminoglycoside derivatives” (priority 2019, dated 2025).

Tested on: Klebsiella pneumoniae ATCC-BAA-1705
Assay: Drug efficacy in mice (mouse pneumonia model)
Format: in vivo
Conditions: CD-1 mice, read at 24 h, FIG. 2
Description: 21 CD-1 mice were divided into 7 cages, 3 mice per cage, and were injected intraperitoneally with the immunosuppressant cyclophosphamide (150 mpk) on the 4th day.
On the first day, 7 cages of mice were injected intraperitoneally again with the immunosuppressant cyclophosphamide (100 mpk). The strain Kpn ATCC-BAA-1705 (Klebsiella pneumoniae ATCC-BAA-1705) was recovered on a MHA plate. The recovered colonies were picked and dissolved in saline to prepare Kpn ATCC-BAA-1705 bacterial solution with a concentration of 4.00E+08 CFU/mL for later use in mouse lung infection. The amount of bacterial solution infected in the lung of experimental mice was 50 μL/mouse, that is, the inoculation amount was 2.00E+07 CFU/mouse. At 2 h and 24 h infection, the lung tissue of the mice in control group was taken and placed in 5 mL saline, homogenized, and dotted on a plate with gradient dilution.
The specific administration of mice was as follows: • (1) 2 h after infection: At the end of 2 h after infection, the lung tissue of the mice in the first cage was taken and placed in 5 mL saline, homogenized, and dotted on a plate with gradient dilution, two duplications for each mouse. The amount of bacteria loaded in the lung tissue of the mouse was counted. Mice in the third and fourth cages were injected respectively with 30 mpk and 10 mpk compound Plazomicin subcutaneously, mice in the fifth and sixth cages were injected respectively with 30 mpk and 10 mpk compound subcutaneously, and mice in the seventh cage were injected with 100 mpk meropenem subcutaneously. • (2) 10 h after infection: Mice in the third and fourth cages were injected respectively with 30 mpk and 10 mpk plazomicin subcutaneously, mice in the fifth and sixth cages were injected respectively with 30 mpk and 10 mpk compound 1 subcutaneously, and mice in the seventh cage were injected with 100 mpk meropenem subcutaneously. At the end of 24 h infection, the lung tissue of the mice in the second to seventh cages was taken and placed in 5 mL saline, homogenized, and dotted on a plate with gradient dilution, two duplications for each mouse. The amount of bacteria carried in the lung tissue of the mouse was counted, and the experimental results were summarized and shown in FIG. 2.

CN[C@@H]1[C@@H](O)[C@@H](O[C@@H]2[C@@H](O)[C@H](O[C@H]3OC(CNCCOCCONC(=N)N)=CC[C@H]3N)[C@@H](N)C[C@H]2NC(=O)[C@@H](O)CCN)OC[C@]1(C)O [Compound 1]
in vivo activity in lung infection model (bacteria in lung tissue) (10 mpk and 30 mpk subcutaneously 2 h and 10 h after infection): good in vivo activity
efficacy at a dose of 10 mpk in lung infection model (10 mpk subcutaneously 2 h and 10 h after infection): equivalent to that of Plazomicin at a dose of 30 mpk
efficacy compared with Plazomicin in lung infection model (subcutaneously 2 h and 10 h after infection): better than that of Plazomicin
